Earlier results as cited in patent US12454539B2, “Controlled-delivery cromakalim prodrugs” (Qlaris Bio, Inc., priority 2019, dated 2025).

Columns and labels:
normotensive mouse model = conditions: once daily dosing
KATP channels = conditions: membrane patches from rabbit mesenteric arterial smooth muscle cells, in the presence of ATP
[1] = system: isolated rat mesenteric lymph vessels; conditions: increasing concentrations

SMILES: CC1(C)Oc2ccc(C#N)cc2[C@@H](N2CCCC2=O)[C@@H]1OP(=O)(O)O [CKLP1]
- intraocular pressure (IOP) (normotensive mouse model): lower intraocular pressure
- solubility in water: more water soluble than levcromakalim

SMILES: CC1(C)Oc2ccc(C#N)cc2C(N2CCCC2=O)C1O (stereo not shown) [Cromakalim, cromakalim]
- increase of open-state probability (Popen) of single KATP channels (KATP channels): more than 9 fold
- contractions of lymph vessels [1]: abolished the contractions of the vessels
